From patent US20150368642A1, “LNA OLIGONUCLEOTIDE CARBOHYDRATE CONJUGATES” (HOFFMANN-LA ROCHE INC., priority 2013, published 2015) come the findings set out here.

Strand notation (5' to 3'): a small letter for the sugar, then the base; units joined by * are phosphorothioate-linked, units joined directly phosphodiester-linked; [ ] holds rarer units or linkages, { } end groups; capitals alone tell only the bases. {Conj1a} = GalNAc carbohydrate conjugate Conj1a; l = locked nucleic acid (LNA); [5mC] = 5-methylcytosine; d = 2'-deoxy (DNA)

One data set concerns ApoB. Kind of data set: Non-human primate study, serum ApoB and LDL-C (ApoB conjugates). The format is in vivo, cynomolgus monkeys. The note with it: Example 7; single i.v. dose; FIG. 16. The method, then: The primary objective for this study is to investigate selected lipid markers over 7 weeks after a single slow bolus injection of anti-PCSK9 and anti-ApoB LNA conjugated to GalNac cluster (Conj2a) to cynomolgus monkeys and assess the potential toxicity of compounds in monkey. The compounds which were prepared in sterile saline (0.9%) at an initial concentration of 0.625 and 2.5 mg/ml).
Male (PCSK9) or female monkeys (ApoB) monkeys of at least 24 months old are used, and given free access to tap water and 180 g of MWM(E) SQC SHORT expanded diet (Dietex France, SDS, Saint Gratien, France) will be distributed daily per animal. The total quantity of food distributed in each cage will be calculated according to the number of animals in the cage on that day. In addition, fruit or vegetables will be given daily to each animal. The animals will be acclimated to the study conditions for a period of at least 14 days before the beginning of the treatment period. During this period, pre-treatment investigations will be performed. The animals are dosed i.v. at a dose if, for example, 0.25 mg/kg or 1 mg/kg. The dose volume will be 0.4 mL/kg. 2 animals are used per group. After three weeks, the data will be analyzed and a second group of animals using a higher or lower dosing regimen may be initiated—preliminary dose setting is 0.5 mg/kg and 1 mg/kg, or lower than that based on the first data set.
The dose formulations will be administered once on Day 1. Animals will be observed for a period of 7 weeks following treatment, and will be released from the study on Day 51. Day 1 corresponds to the first day of the treatment period. Clinical observations and body weight and food intake (per group) will be recorded prior to and during the study.
The following parameters will be determined for all surviving animals at the occasions indicated below: • full biochemistry panel (complete list below)—on Days −8, 15 and 50, • liver Safety (ASAT, ALP, ALAT, TBIL and GGT only)—on Days 4, 8, 22 and 36, • lipid profile (Total cholesterol, HDL-C, LDL-C and Triglycerides) and Apo-B only—on Days −1, 4, 8, 22, 29, 36, and 43.
Blood (approximately 1.0 mL) is taken into lithium heparin tubes (using the ADVIA 1650 blood biochemistry analyzer): Apo-B, sodium, potassium, chloride, calcium, inorganic phosphorus, glucose, HDL-C, LDL-C, urea, creatinine, total bilirubin (TBIL), total cholesterol, triglycerides, alkaline phosphatase (ALP), alanine aminotransferase (ALAT), aspartate aminotransferase (ASAT), creatine kinase, gamma-glutamyl transferase (GGT), lactate dehydrogenase, total protein, albumin, albumin/globulin ratio.
Other Analysis: WO2011009697 & WO2010142805 provides the methods for the following analysis: qPCR, PCSK9/ApoB mRNA analysis, Other analysis includes PCSK9/ApoB protein ELISA, serum Lp(a) analysis with ELISA (Mercodia No. 10-1106-01), tissue and plasma oligonucleotide analysis (drug content), Extraction of samples, standard- and QC-samples, Oligonucleotide content determination by ELISA. […] There was no indication of hepatotoxicity or nephrotoxicity with the ApoB targeting compounds.

The next data set relates to HBV. In words: HBV mouse hydrodynamic tailvein injection model, HBV DNA in liver by qPCR. The format is in vivo, Balb/C mouse. From the text: An LNA oligomer can be assessed for antiviral effect in vivo in a mouse strain, such as BALB/c or C57B/6, where HBV replication can be established by hydrodynamic tail vein injection of a plasmid, such as pAAV/HBV1.3, expressing a partially repeated HBV pregenomic RNA (J Virol. 1995 October; 69(10):6158-69) or pAAV2/HBV1.3, a derivative thereof (WuxiAppTech, Wuxi, China). The injection of the plasmid in a high volume of saline, equal to 8-12% of the body mass of the mouse, will result in the accumulation and expression of the viral pregenomic RNA in the liver, subsequently leading to the establishment of an acute HBV infection. Treatment of the animals with an LNA oligomer can be initiated 1 or more days before the injection of the plasmid or 1 day after the injection of the plasmid. Delivery of the LNA oligomer in saline can be done by intravenous or subcutaneous injection.
An in vivo experiment was performed on SEQ ID 55 and SEQ ID 56, the latter being a GalNAC conjugate of the former (conj1a). The LNA compounds were tested for efficacy against HBV in the mouse hydrodynamic tailvein injection model using the Balb/C mouse strain. LNA compounds were be tested at equimolar doses; 2 and 10 mg/kg, single injection (SEQ ID 55) and at 2.7 and 13.5 mg/kg, single injection (SEQ ID 56). The LNA anti-HBV compounds were compared to saline and to entecavir, an inhibitor of the HBV reverse transcriptase. Entecavir was dosed p.o. daily at 0.1 mg/kg. Where applicable, the animals were treated with the LNA compound 24 hours before the hydrodynamic injection. Entecavir was given in daily doses as described starting 24 hours after the hydrodynamic injection. […] All the animals were monitored on a daily basis for body weight changes and clinical signs for the duration of the in vivo study. […] All the blood samples were collected in tubes containing heparin sodium The portion of the left lobe of each liver was used to determine the level of HBV DNA replication by qPCR, as copies per unit weight of liver in which the quantity of total HBV DNA level is subtracted by the quantity of pAAV2/HBV DNA level. […]
A general note: Quantitative PCR measures a nucleic acid by following its amplification.

The next data set relates to ApoB mRNA. Kind of data set: In vivo silencing of ApoB mRNA with monoGalNAc conjugates (branched DNA assay). The note with it: Example 4; C57BL6 mice, single 1 mg/kg i.v., day 7; compared to unconjugated #12; FIG. 7a. From the text:
Capital letters are LNA nucleosides (such as beta-D-oxy LNA), lower case letters are a DNA nucleoside. Subscript s represents a phosphorothioate internucleoside linkage (region A). LNA cytosines are optionally 5-methyl cytosine. The 2PO linker (region B) is 5′ to the sequence region A, and comprises of two DNA nucleosides linked by phosphodiester linkage, with the internucleoside linkage between the 3′ DNA nucleoside of region A and the 5′ LNA nucleoside of region A also being phosphodiester. A linkage group (Y) may be used to link the conjugate group, when present, to region B, or A (SEQ ID NO 8 and 11). To compare the monoGalNAc conjugates with different linkers and the GalNAc cluster C57BL6 mice were treated i.v. with saline control or with a single dose of 1 mg/kg of ASO conjugated to Mono-GalNAc either without biocleavable linker, with Dithio-linker (SS) or with DNA/PO-linker (PO) (FIG. 7a) or with 0.25 mg/kg of ASO conjugated to Mono-GalNAc or GalNAc cluster (FIG. 7b). After 7 days the animals were sacrificed and RNA was isolated from liver and kidney samples and analysed for ApoB mRNA expression.
C57BL6 mice were dosed i.v. with a single dose of 1 mg/kg or 0.25 mg/kg ASO formulated in saline or saline alone according to the above table. […] Total RNA was extracted from liver and kidney samples and ApoB mRNA levels were analysed using a branched DNA assay.

Consider “SEQ ID NO 32: GsTstsgsascsascstsgsTsC, 2PO-DNA (5′ca3′), cholesterol; ApoB (CAGTTGACACTGTC; listed as DNA, chemistry not fully specified)”, for which the “pharmacology (serum ApoB and LDL-C)” value with ApoB is “effective”.
As for “SEQ ID NO 17: GsTstsgsascsascstsgsTsC, GalNAc cluster Conj2a; ApoB (GTTGACACTGTC; listed as DNA, chemistry not fully specified)”, in the data set with ApoB, the “pharmacology (serum ApoB and LDL-C)” value is given as “effective”; the “potency compared to the cholesterol conjugated compound” value is given as “considerably more potent than the cholesterol conjugated compound”.
Take “SEQ ID NO 56: 5′-GsAsGsGscsastsasgscsasgs^mCsAsGsG-3′ with a 5′ GalNac(Conj1a) ({Conj1a}-lG*lA*lG*lG*dC*dA*dT*dA*dG*dC*dA*dG*l[5mC]*lA*lG*lG)”: the “reduction in viral titer in the liver” value in the data set on HBV (8 days after delivery of a single dose and 7 days after the initiation of the infection) came to 90%. Besides, the “effect on replication of HBV / HBV DNA level in the liver” value with HBV (Balb/C mice, single injection 24 hours before hydrodynamic injection, SEQ ID 55 2 and 10 mg/kg, SEQ ID 56 2.7 and 13.5 mg/kg) is listed as “excellent dose-dependent antiviral effect”.
For the substance “SEQ ID NO 8: GsCsaststsgsgstsastsTsCsA, no cleavable linker, monoGalNAc; ApoB (GCATTGGTATTCA; sugars from the 5' end l2 d8 l3, all phosphorothioate, methylation of C not given here; monoGalNAc conjugated without cleavable linker)”, the “ApoB mRNA knock down, activity in the liver” value in the data set with ApoB mRNA is given as “clearly improved activity in the liver”.
As for “SEQ ID NO 14: GsCsaststsgsgstsastsTsCsA, 2PO-DNA (5′ca3′), cholesterol; ApoB (CAGCATTGGTATTCA; chemistry not fully specified)”, the “pharmacology (serum ApoB and LDL-C)” value with ApoB is “did not exhibit significant pharmacology”.
With “SEQ ID NO 10: GsCsaststsgsgstsastsTsCsA, 2PO-DNA (5′ca3′), monoGalNAc; ApoB (CAGCATTGGTATTCA; listed as DNA, chemistry not fully specified)”, in the data set with ApoB mRNA, the “ApoB mRNA knock down, activity in the liver” value was “clearly improved activity in the liver”.
